{"source": "paper PMC7822030", "about": "“Hybrid Inhibitors of DNA Gyrase A and B: Design, Synthesis and Evaluation” (Pharmaceutics, 2020)", "key": {"E. coli DNA gyrase": {"target": "T1, E. coli DNA gyrase (Escherichia coli, UniProt P0AES4+P0AES6)", "T1 construct": "purchased Inspiralis, Norwich, UK", "test": "E. coli DNA gyrase supercoiling assay", "format": "biochemical"}, "E. coli topoisomerase IV": {"target": "T2, E. coli topoisomerase IV (Escherichia coli, UniProt P0AFI2+P20083)", "T2 construct": "purchased Inspiralis, Norwich, UK", "test": "E. coli topoisomerase IV relaxation assay", "format": "biochemical"}, "A. baumannii ATCC 17978": {"test_system": "A. baumannii ATCC 17978", "test": "MIC broth microdilution, A. baumannii", "format": "cell-based", "details": "Acinetobacter baumannii, ATCC17978, read-out: MIC A. baumannii ATCC #", "outline": "(§1)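 Keio-collection BW25113 lines (wild-type, ΔacrB) and reference strains were tested by CLSI microdilution. Wells held cation-adjusted MHBII and 5 × 10^4 cells, run in triplicate; OD600 was measured at the end.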"}, "P. aeruginosa ATCC 27863": {"test_system": "P. aeruginosa ATCC 27863", "test": "MIC broth microdilution, P. aeruginosa", "format": "cell-based", "details": "Pseudomonas aeruginosa", "outline": "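MICs come from standard CLSI broth microdilution in MHBII with 5 × 10^4 cells per well, read by OD600.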"}, "K. pneumoniae ATCC 10031": {"test_system": "K. pneumoniae ATCC 10031", "test": "MIC broth microdilution, K. pneumoniae", "format": "cell-based", "details": "Klebsiella pneumoniae, ATCC10031, read-out: MIC K. pneumoniae ATCC #", "outline": "as §1"}, "[1]": {"test_system": "E. cloacae spp. cloacae ATCC 13047", "test": "MIC broth microdilution, E. cloacae", "format": "cell-based, Enterobacter cloacae", "details": "Enterobacter cloacae, ATCC13047, read-out: MIC E. cloacae spp. cloacae ATCC #"}, "E. coli ATCC 25922": {"test_system": "E. coli ATCC 25922", "test": "MIC broth microdilution, E. coli ATCC 25922", "format": "cell-based", "details": "Escherichia coli, ATCC25922, read-out: MIC E. coli ATCC #", "outline": "as §1"}, "E. coli BW25113 WT": {"test_system": "E. coli BW25113 WT", "test": "MIC, E. coli BW25113 wild-type", "format": "cell-based", "details": "Escherichia coli, BW25113, read-out: Minimum Inhibitory Concentration E. coli BW# WT", "outline": "as §1"}, "E. coli BW25113 ΔacrB": {"test_system": "E. coli BW25113 ΔacrB", "format": "cell-based, Escherichia coli", "outline": "(§2)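 Compounds were serially diluted in cation-adjusted MHBII, then each well received 5 × 10^4 bacteria. Plates were bagged to limit evaporation during incubation, and OD600 was then read. Measurements ran in three parallel replicates.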"}, "E. coli BW25113 ΔdapF": {"test_system": "E. coli BW25113 ΔdapF", "format": "cell-based, Escherichia coli", "outline": "as §2"}, "E. coli BW25113 ΔmrcB": {"test_system": "E. coli BW25113 ΔmrcB", "format": "cell-based, Escherichia coli", "outline": "as §2"}, "E. coli BW25113 ΔsurA": {"test_system": "E. coli BW25113 ΔsurA", "format": "cell-based, Escherichia coli", "outline": "as §2"}, "E. coli BW25113 ΔtolC": {"test_system": "E. coli BW25113 ΔtolC", "format": "cell-based, Escherichia coli", "outline": "as §2"}, "E. coli MG1655 WT": {"test_system": "E. coli MG1655 WT", "test": "MIC, E. coli MG1655 wild-type with PAβN", "format": "cell-based, Escherichia coli"}, "[2]": {"test_system": "E. coli MG1655 GyrA S83L, D87N ParC S80I, E84G", "test": "microbe, parasite or virus in culture", "format": "cell-based, Escherichia coli"}, "[3]": {"test_system": "E. coli MG1655 GyrB R136C", "test": "microbe, parasite or virus in culture", "format": "cell-based, Escherichia coli"}, "[4]": {"details": "molar conversion in parentheses"}, "[5]": {"details": "in the presence of 50 µg/mL PAβN"}}, "note": "Where two headings read alike, the source gives them in different places.", "data": [{"smiles": "Cc1[nH]c(C(=O)Nc2nc3ccc(C(=O)NCCOCCN4CCN(c5cc6c(cc5F)c(=O)c(C(=O)O)cn6C5CC5)CC4)cc3s2)c(Cl)c1Cl.Cl", "note": "[Compound 11a, 4-(3-Carboxy-1-cyclopropyl-6-fluoro-4-oxo-1,4-dihydroquinolin-7-yl)-1-(2-(2-(2-(3,4-dichloro-5-methyl-1H-pyrrole-2-carboxamido)benzo[d]thiazole-6-carboxamido)ethoxy)ethyl)piperazin-1-ium chloride]", "values": [{"measurement": "IC50", "setting": "E. coli DNA gyrase", "result": "130 ± 30", "unit": "nM"}, {"measurement": "IC50", "setting": "E. coli topoisomerase IV", "result": "> 10000", "unit": "nM"}, {"measurement": "Inhibition of topoisomerase IV (in words)", "setting": "E. coli topoisomerase IV; relaxation assay", "result": "lack of activity"}, {"measurement": "MIC", "setting": "A. baumannii ATCC 17978; broth microdilution, 18 h", "result": "> 64", "unit": "µg/mL"}, {"measurement": "MIC", "setting": "A. baumannii ATCC 17978; [4]", "result": "> 82.9", "unit": "µM"}, {"measurement": "MIC", "setting": "P. aeruginosa ATCC 27863; ATCC27863, 18 h, read-out: MIC P. aeruginosa ATCC #", "result": "> 64", "unit": "µg/mL"}, {"measurement": "MIC", "setting": "P. aeruginosa ATCC 27863; ATCC27863, read-out: MIC P. aeruginosa ATCC #, molar conversion in parentheses, read-out: MIC P. aeruginosa ATCC 27863", "result": "> 82.9", "unit": "µM"}, {"measurement": "MIC", "setting": "K. pneumoniae ATCC 10031; broth microdilution, 18 h", "result": 4, "unit": "µg/mL"}, {"measurement": "MIC", "setting": "K. pneumoniae ATCC 10031; [4]", "result": 5.18, "unit": "µM"}, {"measurement": "MIC", "setting": "[1]; broth microdilution, 18 h", "result": 64, "unit": "µg/mL"}, {"measurement": "MIC", "setting": "[1]; [4]", "result": 82.9, "unit": "µM"}, {"measurement": "MIC", "setting": "E. coli ATCC 25922; broth microdilution, 18 h", "result": 32, "unit": "µg/mL"}, {"measurement": "MIC", "setting": "E. coli ATCC 25922; [4]", "result": 41.5, "unit": "µM"}, {"measurement": "MIC", "setting": "E. coli BW25113 WT; [4]", "result": 41.5, "unit": "µM"}, {"measurement": "MIC", "setting": "E. coli BW25113 WT; wild-type", "result": 32, "unit": "µg/mL"}, {"measurement": "Minimum Inhibitory Concentration E. coli BW25113 ΔacrB", "setting": "E. coli BW25113 ΔacrB; efflux pump mutant", "result": 32, "unit": "µg/mL"}, {"measurement": "Minimum Inhibitory Concentration E. coli BW25113 ΔacrB", "setting": "E. coli BW25113 ΔacrB; [4]", "result": "(41.5 µM)"}, {"measurement": "Minimum Inhibitory Concentration E. coli BW25113 ΔdapF", "setting": "E. coli BW25113 ΔdapF; impaired cell-wall mutant", "result": 32, "unit": "µg/mL"}, {"measurement": "Minimum Inhibitory Concentration E. coli BW25113 ΔdapF", "setting": "E. coli BW25113 ΔdapF; [4]", "result": "(41.5 µM)"}, {"measurement": "Minimum Inhibitory Concentration E. coli BW25113 ΔmrcB", "setting": "E. coli BW25113 ΔmrcB; impaired cell-wall mutant", "result": 32, "unit": "µg/mL"}, {"measurement": "Minimum Inhibitory Concentration E. coli BW25113 ΔmrcB", "setting": "E. coli BW25113 ΔmrcB; [4]", "result": "(41.5 µM)"}, {"measurement": "Minimum Inhibitory Concentration E. coli BW25113 ΔsurA", "setting": "E. coli BW25113 ΔsurA; impaired cell-wall mutant", "result": 16, "unit": "µg/mL"}, {"measurement": "Minimum Inhibitory Concentration E. coli BW25113 ΔsurA", "setting": "E. coli BW25113 ΔsurA; [4]", "result": "(20.7 µM)"}, {"measurement": "Minimum Inhibitory Concentration E. coli BW25113 ΔtolC", "setting": "E. coli BW25113 ΔtolC; efflux pump mutant", "result": 0.5, "unit": "µg/mL"}, {"measurement": "Minimum Inhibitory Concentration E. coli BW25113 ΔtolC", "setting": "E. coli BW25113 ΔtolC; [4]", "result": "(0.65 µM)"}, {"measurement": "MIC", "setting": "E. coli MG1655 WT; Escherichia coli, MG1655, read-out: Minimum Inhibitory Concentration E. coli MG# WT, 50 µg/mL PAβN, molar conversion in parentheses", "result": 0.65, "unit": "µM"}, {"measurement": "Minimum Inhibitory Concentration E. coli MG1655 WT", "setting": "E. coli MG1655 WT; [5]", "result": 0.5, "unit": "µg/mL"}, {"measurement": "MIC", "setting": "[2]; Escherichia coli, MG1655, read-out: Minimum Inhibitory Concentration E. coli MG# GyrA S83L, D87N ParC S80I, E84G", "result": 10.4, "unit": "µM"}, {"measurement": "Minimum Inhibitory Concentration E. coli MG1655 GyrA S83L, D87N ParC S80I, E84G", "setting": "[2]; [5]", "result": 8, "unit": "µg/mL"}, {"measurement": "MIC", "setting": "[3]; Escherichia coli, MG1655, read-out: Minimum Inhibitory Concentration E. coli MG# GyrB R#C", "result": 0.65, "unit": "µM"}, {"measurement": "Minimum Inhibitory Concentration E. coli MG1655 GyrB R136C", "setting": "[3]; [5]", "result": 0.5, "unit": "µg/mL"}, {"measurement": "melting point", "result": "187 to 190", "unit": "°C"}]}]}
